Data on 2 compounds can be found in patent US4238507A, “Pharmacological compound with immunopotentiating activity and production and uses thereof” (Zaidan Hojin Biseibutsu Kagaku Kenkyu Kai, priority 1979, dated 1980).

One data set relates to alkaline phosphatase. The note with it: literature; cited from earlier work.
For data set [1], the system named is cellular immunity (cell-mediated immunity). The data set can be described thus: Delayed-Type Hypersensitivity (D.T.H.) footpad swelling, effect on cellular immunity in mice immunized with sheep red blood cells. Type of data set: in vivo, ddY mouse. The following applies: for Degree of swelling: left hind footpad, 24 hours after elicitation. The procedure: In order to evaluate the immunopotentiating properties of the compound (I) of this invention, the effect of the compound (I) on cellular immunity (cell-mediated immunity) was tested according to a known Delayed-Type Hypersensitivity (D.T.H.) technique (see P. H. Lagrange, G. B. Mackaness and T. E. Mille, "J. Exp. Med", 139, 1529-1539 (1974)) using mice immunized with sheep red blood cells as antigen.
Thus, 10^8 sheep red blood cells (SRBC) suspended in 0.05 ml of physiological saline were subcutaneously injected at the time of immunization to the right hind footpad of each dd/.UPSILON. mouse under test (female, 6 weeks old) to establish delayed-type hypersensitivity. Simultaneously with the immunization, a varying dose of the compound (I) was intraperitoneally injected or orally administered into each test mouse. Four days later, 10^8 sheep red blood cells were subcutantaneously injected into the left hind footpad of each test mouse for elicitation of the D.T.H. response. 24 hours after the elicitating injection, the thickness of the left hind footpad was measured to evaluate the degree of the swelling in the footpad. The degree of the swelling serves to estimate the cellular immunity involved. In the Table, the swelling degree is expressed in terms of the values calculated by the equation: [formula]

Data set [2] in a line: acute toxicity (LD50), intraperitoneal injection in mice. The following applies: mouse, in vivo, ip; intraperitoneally injected into mice.
A short description of data set [3]: stability compared with forphenicine. Format: physicochemical. The following applies: relative to forphenicine.
The next data set concerns immune response. The data set can be described thus: immunopotentiating activity upon oral administration compared with forphenicine. Format: in vivo. The note with it: relative to forphenicine.

Turning to `NC(C(=O)O)c1ccc(C=O)c(O)c1` (stereo not shown) [Forphenicine, forphenicine], the “inhibition of alkaline phosphatase” value in the data set on alkaline phosphatase is on record as “strong inhibitor of alkaline phosphatase”.
For orientation: LD50 means the dose at which mortality reaches 50%. The low end stands for greater toxicity, the high end for lower toxicity. Take `NC(C(=O)O)c1ccc(CO)c(O)c1` (stereo not shown) [compound (I), forphenicinol]: the Degree of swelling is given as 183 in data set [1] (i.p. injection, 0.1 μg/mouse); 159 in data set [1] (i.p. injection, 1 μg/mouse); 148 in data set [1] (i.p. injection, 10 μg/mouse); 131 in data set [1] (i.p. injection, 100 μg/mouse); 139 in data set [1] (oral administration, 0.1 μg/mouse); 133 in data set [1] (oral administration, 1 μg/mouse). In addition, the Degree of swelling is listed as 191 in data set [1] (oral administration, 10 μg/mouse) and 166 in data set [1] (oral administration, 100 μg/mouse). The “potentiating effect on establishment of cellular immunity” value in data set [1] (intraperitoneal injection or oral administration, wide range of dosages) is “intensive potentiating effect”. Besides, the LD50 in data set [2] is greater than 500 mg/kg. Further, in data set [3], the stability entry is “more stable than forphenicine”. Moreover, the “activity upon oral administration” value in the data set on immune response was “higher activity than forphenicine”.
